Test systems include HOP-92 NSCLC; IGROV1 ovarian; K-562 leukemia; M14 melanoma; RPMI-8226 leukemia; SF-268 CNS; SF-295 CNS; SF-539 CNS; SN12C renal; SNB-19 CNS; SR leukemia.
Assay in all cases: NCI-60 cell line screen, 48 h

Molecules are shown by their SMILES.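 In this assay, cells in 96-well plates receive the compound at five concentrations for 48 hours. Endpoints are linearly interpolated between the surrounding concentrations. The concentration for full growth arrest is given as TGI.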

As for `COC(=O)c1cnc(Cl)cn1`, the TGI is more than 100 µM with HOP-92 NSCLC; 97.1 µM in the assay with IGROV1 ovarian; more than 100 µM in the assay on K-562 leukemia; more than 100 µM with M14 melanoma; 59 µM with RPMI-8226 leukemia; more than 100 µM in the assay on SF-268 CNS. Moreover, the TGI in the assay with SF-295 CNS, with SF-539 CNS, in the assay with SN12C renal, in the assay with SNB-19 CNS and in the assay on SR leukemia was more than 100 µM in each case.

These data come from PubChem BioAssay (NCI).
